Measured values: PubChem BioAssay (NCI)
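Where inhibition never reached the appropriate level, the endpoint shown equals the highest concentration tested. Otherwise, values were interpolated linearly from a five-concentration, 48-hour dose response in 96-well plates. At the TGI there is no net growth.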

Columns and labels:
Assay in all cases: NCI-60 cell line screen, 48 h
NCI-H226 lung = system: NCI-H226 lung
HCC-2998 colon = system: HCC-2998 colon
LXFL 529 NSCLC = system: LXFL 529 NSCLC
SNB-78 CNS = system: SNB-78 CNS
NCI/ADR-RES ovarian = system: NCI/ADR-RES ovarian
786-0 renal = system: 786-0 renal
HOP-92 NSCLC = system: HOP-92 NSCLC
BT-549 breast = system: BT-549 breast
OVCAR-8 ovarian = system: OVCAR-8 ovarian
LOX IMVI melanoma = system: LOX IMVI melanoma
UACC-62 melanoma = system: UACC-62 melanoma
MALME-3M melanoma = system: MALME-3M melanoma
ACHN renal = system: ACHN renal
UO-31 renal = system: UO-31 renal
SN12C renal = system: SN12C renal
SF-539 CNS = system: SF-539 CNS
OVCAR-3 ovarian = system: OVCAR-3 ovarian
COLO 205 colon = system: COLO 205 colon
SW-620 colon = system: SW-620 colon
M19-MEL melanoma = system: M19-MEL melanoma
HOP-62 NSCLC = system: HOP-62 NSCLC
EKVX NSCLC = system: EKVX NSCLC
UACC-257 melanoma = system: UACC-257 melanoma
DMS 114 small cell lung = system: DMS 114 small cell lung
XF 498 CNS = system: XF 498 CNS
KM12 colon = system: KM12 colon
SNB-75 CNS = system: SNB-75 CNS
IGROV1 ovarian = system: IGROV1 ovarian
SF-268 CNS = system: SF-268 CNS
CCRF-CEM leukemia = system: CCRF-CEM leukemia
M14 melanoma = system: M14 melanoma
SK-OV-3 ovarian = system: SK-OV-3 ovarian
RPMI-8226 leukemia = system: RPMI-8226 leukemia
K-562 leukemia = system: K-562 leukemia
A549 NSCLC = system: A549 NSCLC
OVCAR-5 ovarian = system: OVCAR-5 ovarian
OVCAR-4 ovarian = system: OVCAR-4 ovarian
CAKI-1 renal = system: CAKI-1 renal
MDA-N = system: MDA-N
SR leukemia = system: SR leukemia
NCI-H522 lung = system: NCI-H522 lung
RXF 393 renal = system: RXF 393 renal
DMS 273 small cell lung = system: DMS 273 small cell lung
DU-145 prostate = system: DU-145 prostate
HCT-116 colon = system: HCT-116 colon
A498 renal = system: A498 renal
U251 CNS = system: U251 CNS
MCF7 breast = system: MCF7 breast
SK-MEL-28 melanoma = system: SK-MEL-28 melanoma
SNB-19 CNS = system: SNB-19 CNS
T-47D breast = system: T-47D breast
SF-295 CNS = system: SF-295 CNS
HCT-15 colon = system: HCT-15 colon
HOP-18 NSCLC = system: HOP-18 NSCLC
DLD-1 colon = system: DLD-1 colon
SK-MEL-2 melanoma = system: SK-MEL-2 melanoma
PC-3 prostate = system: PC-3 prostate
NCI-H460 lung = system: NCI-H460 lung
HT29 colon = system: HT29 colon
MDA-MB-231 breast = system: MDA-MB-231 breast
TK-10 renal = system: TK-10 renal
KM20L2 colon = system: KM20L2 colon
NCI-H23 lung = system: NCI-H23 lung
SK-MEL-5 melanoma = system: SK-MEL-5 melanoma
MDA-MB-435 = system: MDA-MB-435

C=C1C(=O)OC2C(C)C3C=CC(=O)[C@@]3(C)C(OC(=O)/C(C)=C/C)C1[C@@H]2OC(C)=O (stereo not given in full)
TGI (NCI-H226 lung): 4420 nM | TGI (HCC-2998 colon): 3200 nM | TGI (LXFL 529 NSCLC): 1160 nM | TGI (SNB-78 CNS): 2800 nM | TGI (NCI/ADR-RES ovarian): 730 nM | TGI (786-0 renal): 630 nM | TGI (HOP-92 NSCLC): 1560 nM | TGI (BT-549 breast): 682 nM | TGI (OVCAR-8 ovarian): 628 nM | TGI (LOX IMVI melanoma): 521 nM | TGI (UACC-62 melanoma): 810 nM | TGI (MALME-3M melanoma): 539 nM | TGI (ACHN renal): 1680 nM | TGI (UO-31 renal): 2480 nM | TGI (SN12C renal): 1240 nM | TGI (SF-539 CNS): 987 nM | TGI (OVCAR-3 ovarian): 744 nM | TGI (COLO 205 colon): 906 nM | TGI (SW-620 colon): 694 nM | TGI (M19-MEL melanoma): 1840 nM | TGI (HOP-62 NSCLC): 2860 nM | TGI (EKVX NSCLC): 1270 nM | TGI (UACC-257 melanoma): 1660 nM | TGI (DMS 114 small cell lung): 2370 nM | TGI (XF 498 CNS): 2530 nM | TGI (KM12 colon): 3680 nM | TGI (SNB-75 CNS): 2980 nM | TGI (IGROV1 ovarian): 2050 nM | TGI (SF-268 CNS): 3220 nM | TGI (CCRF-CEM leukemia): > 28700 nM | TGI (M14 melanoma): 1960 nM | TGI (SK-OV-3 ovarian): 3520 nM | TGI (RPMI-8226 leukemia): 3160 nM | TGI (K-562 leukemia): 16000 nM | TGI (A549 NSCLC): 3800 nM | TGI (OVCAR-5 ovarian): 3320 nM | TGI (OVCAR-4 ovarian): 2530 nM | TGI (CAKI-1 renal): 1610 nM | TGI (MDA-N): 738 nM | TGI (SR leukemia): 3610 nM | TGI (NCI-H522 lung): 334 nM | TGI (RXF 393 renal): 610 nM | TGI (DMS 273 small cell lung): 1810 nM | TGI (DU-145 prostate): 3230 nM | TGI (HCT-116 colon): 769 nM | TGI (A498 renal): 2810 nM | TGI (U251 CNS): 2360 nM | TGI (MCF7 breast): 1370 nM | TGI (SK-MEL-28 melanoma): 1760 nM | TGI (SNB-19 CNS): 4130 nM | TGI (T-47D breast): 2130 nM | TGI (SF-295 CNS): 2810 nM | TGI (HCT-15 colon): 782 nM | TGI (HOP-18 NSCLC): 3280 nM | TGI (DLD-1 colon): 1790 nM | TGI (SK-MEL-2 melanoma): 1180 nM | TGI (PC-3 prostate): 1870 nM | TGI (NCI-H460 lung): 1330 nM | TGI (HT29 colon): 1180 nM | TGI (MDA-MB-231 breast): 678 nM | TGI (TK-10 renal): 1570 nM | TGI (KM20L2 colon): 2990 nM | TGI (NCI-H23 lung): 1290 nM | TGI (SK-MEL-5 melanoma): 2780 nM | TGI (MDA-MB-435): 860 nM
